What is called pKi is −log10 of the Ki, conventionally taken in molar units.

pKi: −log10 of the molar value. Where two headings read alike, the source gives them in different places.

The target of one test is T1, JAK3 (Homo sapiens, UniProt P52333).
T1 sequence (P52333 1-1124): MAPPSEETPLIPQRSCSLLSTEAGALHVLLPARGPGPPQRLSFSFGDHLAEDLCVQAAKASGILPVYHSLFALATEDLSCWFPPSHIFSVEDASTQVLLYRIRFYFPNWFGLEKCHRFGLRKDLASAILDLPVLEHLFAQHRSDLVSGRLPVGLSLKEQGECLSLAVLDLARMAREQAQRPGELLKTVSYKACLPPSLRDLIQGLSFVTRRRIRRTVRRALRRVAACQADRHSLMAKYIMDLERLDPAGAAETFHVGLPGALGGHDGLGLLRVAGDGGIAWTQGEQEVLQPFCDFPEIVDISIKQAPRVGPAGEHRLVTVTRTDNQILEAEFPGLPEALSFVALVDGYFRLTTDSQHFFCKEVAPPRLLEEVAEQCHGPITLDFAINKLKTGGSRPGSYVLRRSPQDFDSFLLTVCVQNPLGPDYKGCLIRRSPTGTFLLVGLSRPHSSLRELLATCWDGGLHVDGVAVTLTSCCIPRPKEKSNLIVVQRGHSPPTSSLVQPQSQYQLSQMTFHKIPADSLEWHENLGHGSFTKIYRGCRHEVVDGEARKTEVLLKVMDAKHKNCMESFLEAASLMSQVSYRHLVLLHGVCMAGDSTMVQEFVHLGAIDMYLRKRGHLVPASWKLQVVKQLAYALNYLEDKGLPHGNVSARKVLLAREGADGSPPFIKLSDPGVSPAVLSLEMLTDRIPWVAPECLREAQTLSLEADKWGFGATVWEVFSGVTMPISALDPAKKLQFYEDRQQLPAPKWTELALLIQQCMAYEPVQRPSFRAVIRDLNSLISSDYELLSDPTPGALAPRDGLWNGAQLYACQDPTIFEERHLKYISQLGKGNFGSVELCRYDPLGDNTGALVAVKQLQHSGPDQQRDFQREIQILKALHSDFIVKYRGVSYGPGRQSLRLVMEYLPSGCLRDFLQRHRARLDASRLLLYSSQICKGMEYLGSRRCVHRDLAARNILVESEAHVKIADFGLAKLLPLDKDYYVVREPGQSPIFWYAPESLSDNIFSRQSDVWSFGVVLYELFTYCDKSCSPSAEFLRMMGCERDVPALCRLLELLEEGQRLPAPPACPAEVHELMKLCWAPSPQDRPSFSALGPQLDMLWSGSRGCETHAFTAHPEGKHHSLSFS
The experiment in a line: biochemical.

For another test, the target named is T2, Aurora-2 (Aurora A) (Homo sapiens, UniProt O14965).
T2 sequence (O14965 1-403): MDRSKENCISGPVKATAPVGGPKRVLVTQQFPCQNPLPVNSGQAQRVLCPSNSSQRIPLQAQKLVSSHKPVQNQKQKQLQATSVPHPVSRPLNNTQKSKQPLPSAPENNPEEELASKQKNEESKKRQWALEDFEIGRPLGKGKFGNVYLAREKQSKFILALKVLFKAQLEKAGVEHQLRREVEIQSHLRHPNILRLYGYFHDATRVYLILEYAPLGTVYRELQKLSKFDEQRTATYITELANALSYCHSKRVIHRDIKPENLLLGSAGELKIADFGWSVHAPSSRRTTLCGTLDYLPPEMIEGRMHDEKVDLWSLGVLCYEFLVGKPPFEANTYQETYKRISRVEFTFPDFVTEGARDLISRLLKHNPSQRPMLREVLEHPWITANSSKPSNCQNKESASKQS
The experiment in a line: Aurora-2 (Aurora A) inhibition assay, coupled enzyme. In kind it is biochemical. The note with it: read-out: Aurora A kinase Ki value. The gist of the method: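 These rates came from NADH consumption coupled through pyruvate kinase and lactate dehydrogenase (100 mM Hepes pH 7.5, 10 mM MgCl2, 300 μM NADH). Aurora-2 was present at 40 nM, and the reaction ran at 30 °C after a 10 min preincubation.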

Regarding `Cc1cc(Nc2cc(N3CC(O)(C4CC4)C3)nc(Sc3ccc(NC(=O)C4CC4)c(F)c3)n2)[nH]n1` [Compound 109], the pKi was 6.30 to 8.00 on JAK3 (read-out: JAK3 Ki value) and no less than 9.00 on Aurora-2 (Aurora A).

With `CCC(=O)Nc1ccc(Sc2nc(Nc3cc(C)n[nH]3)cc(N3CC(OC(C)(C)C)C3)n2)cc1` [Compound 67], the pKi was 6.30 to 8.00 on JAK3 (read-out: JAK3 Ki value) and no less than 9.00 on Aurora-2 (Aurora A).

In the case of `Cc1cc(Nc2cc(N3CC(N4CCCC4)C3)nc(Sc3ccc(NC(=O)CC(F)(F)F)cc3)n2)[nH]n1` [Compound 204], the pKi was 6.30 to 8.00 on JAK3 (read-out: JAK3 Ki value) and no less than 9.00 on Aurora-2 (Aurora A).

In the case of `Cc1cc(Nc2cc(N3CC(C)(F)C3)nc(Sc3ccc(NC(=O)CC(F)(F)F)cc3)n2)n[nH]1` [Compound 168, N-(4-(4-(5-methyl-1H-pyrazol-3-ylamino)-6-(3-fluoro-3-methylazetidin-1-yl)pyrimidin-2-ylthio)phenyl)-3,3,3-trifluoropropanamide], the pKi at JAK3 (read-out: JAK3 Ki value) was 6.30 to 8.00; on Aurora-2 (Aurora A), no less than 9.00.

As to `CCC(=O)Nc1ccc(Sc2nc(Nc3cc(C)n[nH]3)cc(N3CC(OC)(C(C)(C)C)C3)n2)cc1` [Compound 90], the pKi was 6.30 to 8.00 on JAK3 and no less than 9.00 at Aurora-2 (Aurora A).

Regarding `CCC(=O)Nc1ccc(Sc2nc(Nc3cc(C)n[nH]3)cc(N3CC(C)(N4CCOCC4)C3)n2)cc1` [Compound 88], the pKi at JAK3 (read-out: JAK3 Ki value) was no less than 8.00; on Aurora-2 (Aurora A), no less than 9.00.

Turning to `Cc1cc(Nc2cc(N3CC(F)(C4CC4)C3)nc(Sc3ccc(NC(=O)CN(C)C)cc3)n2)[nH]n1` [Compound 152], the pKi is 5.70 to 6.30 at JAK3 and no less than 9.00 on Aurora-2 (Aurora A).

For the compound `Cc1cc(Nc2cc(N3CC(C)(O)C3)nc(Sc3ccc(NC(=O)c4ccccc4Cl)cc3)n2)[nH]n1` [Compound 50], the values for the pKi at JAK3 (read-out: JAK3 Ki value) and at Aurora-2 (Aurora A) were no less than 8.00 and no less than 9.00, respectively.

`Cc1cc(Nc2cc(N3CC(O)(C4CC4)C3)nc(Sc3ccc4nc(C(F)(F)F)n(C)c4c3)n2)[nH]n1` [Compound 155]: the pKi on JAK3 is 6.30 to 8.00; on Aurora-2 (Aurora A) it was no less than 9.00.

On to `Cc1cc(Nc2cc(N3CC(F)(C4CC4)C3)nc(Oc3ccc(NC(=O)CC(F)(F)F)cc3)n2)[nH]n1` [Compound 144], for which the pKi on JAK3 is 6.30 to 8.00; on Aurora-2 (Aurora A), no less than 9.00.

Turning to `COC1(C)CN(c2cc(Nc3cc(C)n[nH]3)nc(Sc3ccc(NC(=O)c4ccccc4Cl)cc3)n2)C1` [Compound 51], the values for the pKi at JAK3 and on Aurora-2 (Aurora A) were 6.30 to 8.00 and no less than 9.00, respectively.

On to `CCC(=O)Nc1ccc(Sc2nc(Nc3cc(C)n[nH]3)cc(N3CC(C)(N4CCCC4)C3)n2)cc1` [Compound 89], for which the pKi on JAK3 is 6.30 to 8.00; on Aurora-2 (Aurora A), no less than 9.00.

As to `Cc1cc(Nc2cc(N3CCC3)nc(Sc3ccc(NC(=O)Cc4ccccc4Cl)cc3)n2)[nH]n1` [Compound 57], the pKi was 6.30 to 8.00 at JAK3 and no less than 9.00 on Aurora-2 (Aurora A).

`CC(C)=C1CN(c2cc(Nc3cc(C)n[nH]3)nc(Sc3ccc(NC(=O)CC(F)(F)F)cc3)n2)C1` [Compound 184]: the values for the pKi on JAK3 and on Aurora-2 (Aurora A) were 6.30 to 8.00 and no less than 9.00, respectively.

On to `CC(C)(C)c1cc(Nc2cc(N3CCC3)nc(Sc3ccc(NC(=O)c4ccccc4Cl)cc3)n2)n[nH]1` [Compound 69], for which the pKi at JAK3 (read-out: JAK3 Ki value) is 5.70 to 6.30.

In the case of `CCOC1CN(c2cc(Nc3cc(C)[nH]n3)nc(Sc3ccc(NC(=O)c4ccccc4Cl)cc3)n2)C1` [Compound 37], the values for the pKi at JAK3 (read-out: JAK3 Ki value) and on Aurora-2 (Aurora A) were no less than 8.00 and no less than 9.00, respectively.

For `CCC(=O)Nc1ccc(Sc2nc(Nc3cc(C)n[nH]3)cc(N3CC(N4CCOCC4)C3)n2)cc1` [Compound 68], the pKi on JAK3 is 6.30 to 8.00; on Aurora-2 (Aurora A), no less than 9.00.

On to `Cc1cc(Nc2cc(N3CC(OC(C)C)C3)nc(Sc3ccc(NC(=O)c4ccccc4Cl)cc3)n2)n[nH]1` [Compound 38], for which the pKi was 6.30 to 8.00 on JAK3 and no less than 9.00 on Aurora-2 (Aurora A).

`Cc1cc(Nc2cc(N3CC(F)(C4CC4)C3)nc(Sc3cnc4ccccc4c3)n2)[nH]n1` [Compound 206]: the figures for the pKi at JAK3 and on Aurora-2 (Aurora A) were no less than 8.00 and no less than 9.00, respectively.

Turning to `Cc1cc(Nc2cc(N3CC(C)(C(C)(C)F)C3)nc(Sc3ccc(NC(=O)CC(F)(F)F)cc3)n2)[nH]n1` [Compound 183], the pKi is no less than 8.00 on JAK3 (read-out: JAK3 Ki value) and no less than 9.00 on Aurora-2 (Aurora A).

Regarding `Cc1cc(Nc2cc(N3CC(F)(C4CC4)C3)nc(Sc3ccc(C(=O)NCC(F)(F)F)cc3)n2)[nH]n1` [Compound 205], the results for the pKi at JAK3 (read-out: JAK3 Ki value) and at Aurora-2 (Aurora A) were 6.30 to 8.00 and no less than 9.00, respectively.

On to `COCc1cc(Nc2cc(N3CCC3)nc(Sc3ccc(NC(=O)c4ccccc4Cl)cc3)n2)n[nH]1` [Compound 82], for which the pKi at JAK3 (read-out: JAK3 Ki value) is 5.70 to 6.30.

For `Cc1cnc(Nc2cc(N3CC(F)(C4CC4)C3)nc(Oc3ccc(NC(=O)CC(F)(F)F)cc3)n2)s1` [Compound 181], the pKi at JAK3 (read-out: JAK3 Ki value) was no less than 8.00; on Aurora-2 (Aurora A), no less than 9.00.

Take `Cc1cc(Nc2nc(Sc3ccc(NC(=O)CC(F)(F)F)cc3)nc(N3CC(F)(C4CC4)C3)c2F)[nH]n1` [Compound 178]: the values for the negative-log Ki (pKi) at JAK3 and at Aurora-2 (Aurora A) were 5.70 to 6.30 and no less than 9.00, respectively.

Consider `Cc1cc(Nc2cc(N3CC(O)(C4CC4)C3)nc(Sc3ccc4nc(C(F)(F)F)ccc4c3)n2)[nH]n1` [Compound 186], for which the pKi on JAK3 (read-out: JAK3 Ki value) is 6.30 to 8.00; at Aurora-2 (Aurora A), no less than 9.00.

As for `Cc1cc(Nc2cc(N3CC(F)(C4CC4)C3)nc(Sc3ccc(NS(C)(=O)=O)cc3)n2)[nH]n1` [Compound 151], the results for the pKi on JAK3 and at Aurora-2 (Aurora A) were no less than 8.00 and no less than 9.00, respectively.

In the case of `Cc1cc(Nc2cc(N3CC(C)(C#N)C3)nc(Sc3ccc(NC(=O)CC(F)(F)F)cc3)n2)[nH]n1` [Compound 169], the results for the pKi on JAK3 (read-out: JAK3 Ki value) and on Aurora-2 (Aurora A) were 6.30 to 8.00 and no less than 9.00, respectively.

As to `Cc1cc(Nc2cc(N3CC(OC(=O)CN(C)C)(C4CC4)C3)nc(Sc3ccc(NC(=O)C4CC4)cc3)n2)n[nH]1` [Compound 119], the pKi on JAK3 was 6.30 to 8.00; at Aurora-2 (Aurora A), no less than 9.00.

Turning to `Cc1cc(Nc2cc(N3CC(F)(C4CC4)C3)nc(Sc3ccc(NC(=O)C4(C)CC4)cc3)n2)[nH]n1` [Compound 203], the figures for the pKi on JAK3 and on Aurora-2 (Aurora A) were 5.70 to 6.30 and no less than 9.00, respectively.

For `Cc1cc(Nc2cc(N3CC(N4CC[C@H](F)C4)C3)nc(Sc3ccc(NC(=O)CC(F)(F)F)cc3)n2)[nH]n1` [Compound 185], the pKi at JAK3 (read-out: JAK3 Ki value) was no less than 8.00; on Aurora-2 (Aurora A), no less than 9.00.

On to `Cc1cc(Nc2cc(N3CCC3)nc(Sc3ccc(NC(=O)c4ccc(-c5ccccc5)cc4Cl)cc3)n2)[nH]n1` [Compound 83], for which the pKi at JAK3 was 6.30 to 8.00; on Aurora-2 (Aurora A), no less than 9.00.

Take `CCC(=O)Nc1ccc(Sc2nc(Nc3cc(C)n[nH]3)cc(N3CC4(C3)OCC4(C)C)n2)cc1` [Compound 92]: the pKi was no less than 8.00 at JAK3 and no less than 9.00 on Aurora-2 (Aurora A).

As for `Cc1cc(Nc2cc(N3CC(O)(C4CC4)C3)nc(Sc3cc(F)c4nc(C)ccc4c3)n2)[nH]n1` [Compound 172], the pKi at JAK3 was no less than 8.00; on Aurora-2 (Aurora A), no less than 9.00.

Regarding `Cc1cc(Nc2cc(N3CC(N4CCOCC4)C3)nc(Sc3ccc4nc(CC(F)(F)F)n(C)c4c3)n2)[nH]n1` [Compound 177], the pKi at JAK3 was 6.30 to 8.00; on Aurora-2 (Aurora A), no less than 9.00.

For `Cc1cc(Nc2cc(N3CC(N4CCOCC4)C3)nc(Sc3ccc4c(c3)CN(CC(F)(F)F)C4=O)n2)[nH]n1` [Compound 173], the pKi at JAK3 is no less than 8.00; on Aurora-2 (Aurora A) it was no less than 9.00.
